Here are results for six compounds from US20210341448A1, “SCREENING METHOD FOR THERAPEUTIC DRUG OR PROPHYLACTIC DRUG FOR TAUOPATHY AND DIAGNOSTIC METHOD FOR TAUOPATHY” (National Center for Geriatrics and Gerontology, priority 2018, published 2021).

The target of test [1] is T1, NMDAR (Homo sapiens, UniProt Q05586).
T1 construct: endogenous in cells; host or cells: NT2-N neurons differentiated from NTERA-2 cl.D1 [NT2/D1] cells (ATCC CRL-1973)
The test can be described thus: Measurement of calcium influx through NMDAR into NT2-N cells. Format: cell-based. As to conditions: Cal-520, NT2-N cells, antagonist 50 μM. How it is done: Cultured neurons expressing NMDARs retaining physiological functions were prepared by the following procedure to evaluate the NMDAR activation ability of the tau oligomer. The NTERA-2 cl.D1[NT2/D1] cells (ATCC CRL-1973) (hereinafter described as “NT2 cell”), which are derived from a human pluripotent embryonic cancer, were adhesively cultured on 10-cm plastic dish in maintenance culture medium (high glucose DMEM (Sigma-Aldrich, D6429), 10% FBS, 100 U/ml penicillin/streptomycin) under the conditions of 37° C. and 5% CO2 for 3 to 4 days until the confluency stage was attained. The NT2 cells were detached using Accutase (Innovative Cell Technologies, #AT104), were passaged, and were maintained over a period of 50 days. The medium was replaced 3 times a week.
The maintenance-cultured NT2 cells were dispersed in a low attachment petri dish (STAR SDish9015, RIKAKEN CO., LTD.) in a concentration of 1.5×10^6 to 2.5×10^6/dish, suspension-cultured under the conditions of 37° C. and 5% CO2 on a shaker (100 rpm), and 1 day later were induced to differentiate by adding 1 μM of all-trans-retinoic acid (abcam), to thereby form spheroids. 14 days later, the spheroids were collected, seeded in a 10-cm dish coated with 5 μg/ml of poly-D-lysin (PDL) (Sigma-Aldrich)/Laminin (LAM) (iMatrix-511, Nippi Inc.) and adhesively cultured under the conditions of 37° C. and 5% CO2. From the following day, the culture was carried out by adding 3 kinds of cell division inhibitors (10 μM of uridine, 10 μM of floxuridine, and 1 μM of AraC). […]
For analysis, 5 to 10 regions of the visual field of the NT2-N cells positioned in the system were manually set and the fluorescence intensities were recorded for each region, for Cal-520, every 1 minute for 1 hour continuously at excitation wavelength 480 nm/fluorescence emission wavelength 520 nm, and for Fluo-8, every 2 seconds for 5 minutes continuously at excitation wavelength 480 nm/fluorescence emission wavelength 520 nm. […]

In another test the test system is NT2-N cells. The test can be described thus: Adhesion activity of tau oligomers to NT2-N cell surface (fluorescence microscopy). Format: cell-based, human. As to conditions: on ice 30 minutes, no membrane permeabilization. How it is done: Cal-520 AM was loaded to the NT2-N cells prepared in the above (4-1) by the procedure of the above (4-2), exposed to the tau oligomer sample (10 μl/ml) prepared in the above (1-3) and incubated on ice for 30 minutes. Subsequently, the cells were washed 3 times with DPBS(−) (137 mM of NaCl, 2.68 mM of KCl, 1.47 mM of KH2PO4, 8.06 mM of Na2HPO4) and fixed with 4% paraformaldehyde at room temperature for 15 minutes. After thorough washing with DPBS(−) (10 minutes×3 times), blocking was done with 1% BSA and 3% donkey serum/DPBS for 30 minutes. Then, the anti-phosphorylated tau antibody (anti-pTau (paired pS409, pS412, pS413), AnaSpec, #AS-55416) (1:1500 dilution) as the primary antibody was reacted at room temperature for 1 hour, and Alexa594-labelled anti-mouse IgG (Jackson Immuno Research, #711-585-152) (1:1500 dilution) as a secondary antibody was reacted at room temperature for 30 minutes, to thereby carry out immunostaining. The stained cells were observed using a fluorescence microscope (BZ-X710, Keyence Corporation).
The HT-tau oligomer sample prepared in the above (1-4), instead of the tau oligomer sample prepared in the above (1-3), was exposed to the NT2-N cells by the same procedure as in the above (5-1). After thorough washing, fluorescence microscopic observation was carried out.

The target of the next test is T2, NMDAR complex (Mus musculus, UniProt P35436+P35438+Q01097).
T2 construct: from tissue
The test is described as follows: Far-western blot of HT-tau oligomer on NMDAR complex. Type of test: binding. The note with it: anti-HaloTag detection. The text has this:
The membrane protein prepared by the procedure of the above (7-1) was applied to blue native PAGE (NativePAGE™ 3-12% Bis-Tris Protein Gel (Thermo Fisher Scientific, #BN1003BOX); NativePAGE™ Sample Prep Kit (Thermo Fisher Scientific, #BN2008); and NativePAGE™ Running Buffer Kit (Thermo Fisher Scientific, #BN2007) were used) to thereby obtain crude purified NMDAR (complex of a NMDAR4 tetramer and scaffolding proteins such as PSD95, hereinafter simply described as “NMDAR complex”). The NMDAR complex was transferred from the gel after electrophoresis to PVDF membrane (Merck Millipore, #IPVH00010) (transcription buffer: 25 mM of Tris, 192 mM of glycine, 0.1% SDS, 10% Methanol, pH 8.0). […] Subsequently, the membrane was washed, and the tau oligomer adsorbed onto the PVDF membrane was detected by an anti-HaloTag antibody (Promega Corporation, #G928A) (1:1500 dilution) and an HRP-labelled secondary antibody (Jackson Immuno Research, #111-035-144). Additionally, in a replication experiment carried out in parallel, the NMDAR complex was detected by the same procedure without the exposing step to the tau oligomer sample and using an anti-NR1 antibody (Merck Millipore, #MAB363) (1:2000 dilution), instead of the anti-HaloTag antibody.

Another test relates to NMDA receptor. The test is described as follows: NMDAR-based sandwich ELISA. Format: binding, mouse.
A further test deals with membrane protein (NMDAR). The test is described as follows: Membrane protein-based sandwich ELISA. Format: binding, mouse. As to conditions: data not shown. As for the experimental part:
Pellets of the membrane protein obtained from tau knockout brain by the procedure of the above (7-1) were dissolved in 2% cholic acid or 1% deoxycholate/buffer (50 mM of HEPES, 150 mM of NaCl, pH 7.4), and the solution was centrifuged at 4° C., 150,000×g for 30 minutes to thereby collect the supernatant to use as a membrane protein solution. The obtained membrane protein solution was applied to an ELISA plate (Sumitomo Bakelite Co., Ltd., MS-8596F) and incubated at 4° C. for 60 minutes to thereby coat the plate with the membrane protein. After washing with wash solution (0.004 to 0.008% MNG-3, 50 mM of HEPES, pH 7.4), blocking was done by adding 1% FBS-containing wash solution and incubating at 4° C. for 60 minutes. The solvent of the HT-tau oligomer sample prepared in the above (1-4) was replaced with the wash solution using a protein concentrator (10K MWCO, Pierce, 88526) to thereby prepare a tau oligomer solution of 10^−16 to 10^−6 g/ml. These solutions were applied to the plate and incubated at 4° C. for 15 to 60 minutes. Then, the plate was washed thoroughly with the wash solution and a 5% skim milk-containing wash solution was added, followed by incubating at room temperature for 30 minutes to thereby block the protein. After washing using the wash solution, an anti-HaloTag antibody/wash solution (1:1000 dilution) was added and incubated at room temperature for 30 minutes. Subsequently, the plate was washed with the wash solution, an HRP-labelled secondary antibody/wash solution (Invitrogen, A27036) (1:5000 dilution) was added and incubated at room temperature for 30 minutes. Then, chromogenic reactions were carried out using an Ultra TMB solution (Thermo Fisher Scientific, 34028) to detect the tau oligomers bound to the membrane protein.

The subject of test [2] is NMDAR. The test is described as follows: Dot blot of gel-filtered tau oligomer fractions on NMDAR-containing membrane protein. Format: binding, mouse. The note with it: fractions 7 and 8 compared with fractions 6, 9 and 10. How it is done:
The membrane protein solution prepared by the procedure of the above (7-1) was diluted 16-fold with the above wash buffer and was spotted (1.5 μl/spot) on a nitrocellulose membrane. Then, the membrane was thoroughly dried to thereby obtain a nitrocellulose membrane on which the NMDAR-containing membrane protein was immobilized. On the other hand, a reaction solution before ultracentrifugation to be obtained in the process of preparing the HT-tau oligomer sample of the above (1-4) was fractionated using a gel filtration column (Superdex 200 10/300 GL column, GE Healthcare) (flow rate 0.5 ml/min, fractionated by 1 ml) to thereby obtain tau oligomer fractions in various sizes. Each of the obtained tau oligomer fractions was exposed to the nitrocellulose membrane on which the NMDAR-containing membrane protein was immobilized, to thereby detect the tau oligomers adsorbed onto the nitrocellulose membrane in the same manner as the detection procedure of tau oligomer in the above (7-2).

T2 sequence (P35436 23-1464, other chains not shown): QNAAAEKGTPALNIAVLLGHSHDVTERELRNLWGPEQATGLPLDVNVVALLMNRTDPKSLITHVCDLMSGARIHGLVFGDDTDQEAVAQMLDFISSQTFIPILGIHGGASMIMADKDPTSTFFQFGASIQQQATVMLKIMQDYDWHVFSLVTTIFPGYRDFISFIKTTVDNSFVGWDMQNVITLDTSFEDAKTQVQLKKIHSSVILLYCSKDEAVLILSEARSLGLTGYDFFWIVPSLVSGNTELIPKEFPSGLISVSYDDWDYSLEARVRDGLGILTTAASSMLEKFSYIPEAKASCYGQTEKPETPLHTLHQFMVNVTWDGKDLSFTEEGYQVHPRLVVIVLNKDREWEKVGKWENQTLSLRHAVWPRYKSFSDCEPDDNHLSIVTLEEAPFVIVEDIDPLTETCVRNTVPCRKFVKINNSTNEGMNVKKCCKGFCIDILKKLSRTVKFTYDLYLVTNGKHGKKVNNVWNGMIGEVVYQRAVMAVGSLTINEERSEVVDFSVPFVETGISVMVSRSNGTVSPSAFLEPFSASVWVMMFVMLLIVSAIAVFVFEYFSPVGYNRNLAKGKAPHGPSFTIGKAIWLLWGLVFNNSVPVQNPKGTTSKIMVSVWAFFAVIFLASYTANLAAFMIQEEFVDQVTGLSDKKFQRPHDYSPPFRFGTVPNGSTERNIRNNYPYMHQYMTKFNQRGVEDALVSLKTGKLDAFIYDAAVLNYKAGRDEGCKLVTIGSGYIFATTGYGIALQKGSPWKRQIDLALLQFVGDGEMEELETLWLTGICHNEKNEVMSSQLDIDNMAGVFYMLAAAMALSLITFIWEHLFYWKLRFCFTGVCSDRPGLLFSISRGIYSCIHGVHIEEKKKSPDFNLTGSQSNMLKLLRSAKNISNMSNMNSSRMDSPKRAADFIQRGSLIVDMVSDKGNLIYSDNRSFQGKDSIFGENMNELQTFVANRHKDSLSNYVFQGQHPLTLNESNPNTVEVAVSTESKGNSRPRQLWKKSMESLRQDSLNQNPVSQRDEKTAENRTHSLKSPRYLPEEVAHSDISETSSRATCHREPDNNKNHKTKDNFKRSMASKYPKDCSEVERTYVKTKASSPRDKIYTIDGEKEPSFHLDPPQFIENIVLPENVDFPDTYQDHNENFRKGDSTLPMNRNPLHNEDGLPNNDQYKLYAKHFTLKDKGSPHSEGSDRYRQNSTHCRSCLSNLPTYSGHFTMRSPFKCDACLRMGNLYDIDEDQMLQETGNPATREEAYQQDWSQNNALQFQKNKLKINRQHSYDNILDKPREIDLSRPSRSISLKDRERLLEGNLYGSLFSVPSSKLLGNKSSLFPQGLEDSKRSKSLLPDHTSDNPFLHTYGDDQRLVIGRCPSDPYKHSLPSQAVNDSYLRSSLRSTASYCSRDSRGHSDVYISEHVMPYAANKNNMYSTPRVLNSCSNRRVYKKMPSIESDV
T2 sequence (Q01097 27-1482, other chains not shown): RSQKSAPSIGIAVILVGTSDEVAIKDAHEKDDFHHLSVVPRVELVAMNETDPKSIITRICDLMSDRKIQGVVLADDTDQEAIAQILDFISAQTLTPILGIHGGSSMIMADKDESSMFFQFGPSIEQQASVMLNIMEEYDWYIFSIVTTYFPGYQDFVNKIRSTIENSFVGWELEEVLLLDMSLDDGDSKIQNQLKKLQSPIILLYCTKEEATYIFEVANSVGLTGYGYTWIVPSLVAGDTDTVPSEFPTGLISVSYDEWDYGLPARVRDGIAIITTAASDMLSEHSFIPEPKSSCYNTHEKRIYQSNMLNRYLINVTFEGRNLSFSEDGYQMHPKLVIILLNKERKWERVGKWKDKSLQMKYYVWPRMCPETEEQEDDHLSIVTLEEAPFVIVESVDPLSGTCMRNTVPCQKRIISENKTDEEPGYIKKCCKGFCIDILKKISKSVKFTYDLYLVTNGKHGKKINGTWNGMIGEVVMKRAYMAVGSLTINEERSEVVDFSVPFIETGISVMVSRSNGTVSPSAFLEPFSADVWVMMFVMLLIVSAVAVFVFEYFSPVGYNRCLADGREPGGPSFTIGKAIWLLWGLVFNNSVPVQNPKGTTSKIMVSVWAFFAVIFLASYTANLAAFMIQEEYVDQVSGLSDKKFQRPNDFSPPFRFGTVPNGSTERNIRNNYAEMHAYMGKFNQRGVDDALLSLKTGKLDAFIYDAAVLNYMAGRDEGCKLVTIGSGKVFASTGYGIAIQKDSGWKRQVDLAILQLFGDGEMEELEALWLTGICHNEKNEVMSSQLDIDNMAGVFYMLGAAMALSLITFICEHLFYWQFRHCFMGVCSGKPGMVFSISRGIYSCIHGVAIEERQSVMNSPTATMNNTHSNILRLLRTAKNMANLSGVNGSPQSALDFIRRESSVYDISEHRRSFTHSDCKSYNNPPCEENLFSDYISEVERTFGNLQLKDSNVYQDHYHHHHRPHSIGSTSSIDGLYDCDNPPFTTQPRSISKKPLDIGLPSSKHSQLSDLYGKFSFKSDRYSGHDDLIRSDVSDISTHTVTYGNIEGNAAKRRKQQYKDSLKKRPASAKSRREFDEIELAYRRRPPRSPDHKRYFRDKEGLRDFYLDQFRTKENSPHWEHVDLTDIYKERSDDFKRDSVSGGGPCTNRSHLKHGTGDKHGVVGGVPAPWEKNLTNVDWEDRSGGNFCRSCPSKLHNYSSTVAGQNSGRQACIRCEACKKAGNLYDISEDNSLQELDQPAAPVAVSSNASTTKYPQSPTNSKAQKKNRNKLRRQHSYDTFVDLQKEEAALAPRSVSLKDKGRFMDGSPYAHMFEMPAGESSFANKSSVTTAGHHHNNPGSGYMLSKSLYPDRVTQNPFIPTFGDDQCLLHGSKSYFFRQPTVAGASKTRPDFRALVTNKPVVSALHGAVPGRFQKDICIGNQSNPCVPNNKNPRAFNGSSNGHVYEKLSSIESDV

As for `NC(CCCP(=O)(O)O)C(=O)O` (stereo not shown) [APS, 2-amino-5-phosphonopentanoic acid, reference compound], at NMDAR [1], the “increase of the intracellular calcium concentration induced by the tau oligomer, in presence of antagonist” value is reported as “lost”. For the compound “HT-tau oligomer: tau oligomer prepared from tau monomer and HaloTag-fused tau monomer mixed in a ratio of 4:1”, in the test with NT2-N cells, the “adhesion to the cell surface” value is listed as “patchy pattern of fluorescence was observed”. Moreover, in the test with NMDAR complex, the “interaction with NMDAR complex (around 800 kDa and 1100 kDa)” value was “interacted with both of them”. In the case of “conantokin-G: a peptide blocking a ligand-binding site of the NMDA receptor (GEEELQENQELIREKSN) [reference compound]”, the “effect on binding of the tau oligomer to the NMDA receptor” value in the test on NMDA receptor is “inhibited”. As to `NCC(=O)O` [glycine, reference compound], the “binding of the tau oligomer at low concentrations in the presence of NMDAR ligand” value in the test on membrane protein (NMDAR) is given as “reduced”. Still for that read-out and setting: the entry for `N[C@@H](CCC(=O)O)C(=O)O` [glutamate, reference compound] is “reduced”.

Consider “LMW TauO: comparatively low-molecular-weight tau oligomers contained in gel filtration fractions 7 and 8”, for which, in the test on NMDAR [2], the “binding activity to NMDAR” value is listed as “strong binding activity”.
